# Experimental data as given in a melting point compilation (Tetko et al.).
row,SMILES,melting point [°C]
1,Cc1ccc(Br)cc1N,31 to 33
2,O=C(Nc1ccccc1)c1ccc(O)cc1,195 to 197
3,O=C(NCc1ccc(C(=O)O)cc1)OCc1ccccc1,190 to 192
4,O=Cc1ccccc1OCc1cccnc1,57 to 59
5,CC(C)(C)OC(=O)N1CCC(C(=O)O)(n2cccn2)CC1,159 to 161
6,Nc1ccc(NS(=O)(=O)c2c(Cl)cccc2Cl)cc1,161 to 163
7,CNc1cc(C#N)c2ccccc2n1,166 to 168
8,NNc1ccc(S(=O)(=O)NCc2ccco2)cn1,144 to 146
9,CC(C)CN1C(=O)C(=O)c2ccccc21,82 to 84
10,CC(O)c1ccc(NC(=O)c2ccncc2)cc1 (stereo not given),174 to 176
11,CC(NC(N)=S)c1ccc(Cl)cc1Cl (stereo not given),164 to 166
12,Cc1ccc(N2CCCC(Br)C2=O)cc1 (stereo not given),96 to 98
13,CCCCC(Br)C(=O)Nc1cc(C)on1 (stereo not given),84 to 86
14,O=C(O)c1cccc(F)c1Sc1ccccc1,161 to 163
15,NNC(=O)c1ccc(NS(=O)(=O)c2cccc([N+](=O)[O-])c2)cc1,80 to 82
16,Nc1nnc(-c2ccc3c(c2)OCO3)o1,271 to 273
17,OCc1cn(-c2cccc(Cl)c2Cl)nn1,105 to 107
18,Nc1cc(-c2ccccc2Br)no1,74 to 76
19,O=S(=O)(c1ccccc1)n1c(I)cc2cccnc21,109 to 111
20,O=C(O)CCc1ccncc1,209 to 211
21,O=C(O)c1cc(NS(=O)(=O)c2cccs2)ccc1O,209 to 211
22,c1cc2[nH]ccc2cn1,107 to 109
23,CCN(Cc1ccccc1)c1ccc(C(=O)O)cc1,183 to 185
24,O=C(O)c1cc2c(s1)CCCCC2,162 to 166
25,Nc1ccnn1CCc1ccccc1,67 to 69

row,SMILES,melting point [°C]
1,O=C1NCC(=O)N2CCOCC12 (stereo not given),170 to 172
2,O=C(C1OCCc2ccccc21)N1CCCC1 (stereo not given),109 to 111
3,CS(=O)(=O)CCOc1cccc(N)c1,79 to 81
4,O=C(O)c1ccc(N2CC=CC2)cc1,285 to 287
5,Cc1cc(C)c2c(N)c(C(=O)NN)sc2n1,245 to 247
6,Cc1ccc(C(=O)CCl)cc1,53 to 57
7,O=Cc1ccc(-c2cccc(Cl)c2Cl)o1,94 to 98
8,Cc1nnc2ccc(C#N)cn12,201 to 203
9,CC(C)C(=O)CNC(=O)c1ccc([N+](=O)[O-])cc1,106 to 108
10,O=C(O)C=Cc1ccc(Oc2cccnc2)c(F)c1,202 to 204
11,O=C(O)CCC(=O)Nc1nccs1,257 to 259
12,CCN(CC)S(=O)(=O)c1cccc(C(=O)NC(C(=O)O)C(C)C)c1 (stereo not given),110 to 112
13,O=C(O)c1ccc(NS(=O)(=O)C=Cc2ccccc2)cc1,254 to 256
14,Cn1c(=O)c2ccccc2n2cc3ccccc3c12,164 to 166
15,O=C(O)c1cnoc1-c1ccccc1,149 to 151
16,Nc1cccc(S(=O)(=O)Nc2ccccc2C(=O)O)c1,198 to 200
17,CCN(CC)c1ccc(-c2nnc(S)o2)cc1,163 to 165
18,O=C(O)c1cc(F)cc(Cl)c1O,210 to 212
19,CC1Nc2ccccc2NC1=O (stereo not given),130 to 132
20,COc1ccc2[nH]c3c(c2c1)CC(C)CC3 (stereo not given),59 to 61
21,CC(C)(C)C(=O)NCCc1ccc(S(N)(=O)=O)s1,144 to 146
22,CCS(=O)(=O)c1ccc(F)c(C(=O)O)c1,129 to 131
23,Cc1ccc2cccnc2c1S(N)(=O)=O,170 to 172
24,Nc1ccc(C(=O)CCC(=O)O)cc1,184 to 186
25,CCC(=O)Nc1cc2ccccc2cc1C(=O)O,234 to 236

row,SMILES,melting point [°C]
1,CC(C)c1nnc(CC#N)[nH]1,148 to 150
2,CC(=O)c1cc(S(N)(=O)=O)ccc1C,124 to 126
3,Nc1ccc(CN2C(=O)CSC2=O)cc1,134 to 136
4,COc1c([N+](=O)[O-])ccc2[nH]ncc12,219 to 221
5,CC(C)C(N)c1nc(-c2nnc[nH]2)no1 (stereo not given),210 to 212
6,O=C1COc2cc(C(=O)O)ccc2N1,321 to 323
7,Cc1cc(NC(=O)OC(C)(C)C)ccc1N,103 to 105
8,CC(Cl)C(=O)c1ccc(C(C)(C)C)cc1 (stereo not given),18 to 20
9,CC(C)c1cc(C(=O)O)c2ccccc2n1,141 to 143
10,NC(=O)c1cc(Cl)ccn1,157 to 159
11,O=C1NCC(Br)C(=O)N1 (stereo not given),200 to 202
12,COc1cc(=O)[nH]c(NC(=O)CCl)n1,189 to 191
13,O=C(NC1CCS(=O)(=O)C1)OCC(F)(F)F (stereo not given),79 to 81
14,NCC(O)c1cc2ccccc2s1 (stereo not given),128 to 130
15,COc1ccc(NC(=O)OCC(F)(F)F)cc1,79 to 81
16,COc1cc(Cl)c(C)cc1NC(=O)CCl,167 to 169
17,O=C(O)/C=C/c1cccc(Cl)c1Cl,233 to 235
18,Nc1onc(-c2ccccc2)c1-c1ccccc1,144 to 146
19,O=C(O)COc1cccc(N2CCCC2=O)c1,169 to 171
20,O=c1[nH]cnc2sc3c(c12)CCCCC3,107 to 109
21,N#Cc1ccc(C=O)c(F)c1,79 to 81
22,N#CCc1ccc(NC2CCCCC2)cc1,57 to 59
23,O=C(O)CC(c1ccccc1)N1CCOC1=O (stereo not given),123 to 125
24,C=CCn1c(=S)sc2c(=O)[nH]cnc21,216 to 218
25,Cc1noc(C)c1CNC(=O)CCl,79 to 81

row,SMILES,melting point [°C]
1,c1ccc(CN2CCN(c3ccccc3)CC2)cc1,51 to 53
2,Cc1nc(Cl)c2c(CC(C)C)csc2n1,60 to 62
3,NC(=S)NN=Cc1ccccc1Cl,210 to 212
4,O=C1c2ccccc2C(=O)N1CC1CO1 (stereo not given),98 to 100
5,O=C(O)C=Cc1ccccc1OC(F)F,164 to 166
6,Nc1cccc(NC(=O)C2CCCCC2)c1,139 to 141
7,CNS(=O)(=O)c1ccc(S(=O)(=O)Cl)cc1,99 to 101
8,O=C1CCCN1c1cccc([N+](=O)[O-])c1,107 to 109
9,O=S(=O)(c1ccc2oc(S)nc2c1)N1CCCCC1,139 to 141
10,O=C(O)CNC(=O)c1ccccc1Cl,182 to 184
11,O=C(O)c1cc2c(s1)-c1ccccc1OC2,236 to 238
12,CC1(C)CC(=O)NC1=O,103 to 105
13,Cc1cc(N2CCN(C)CC2)ccc1N,100 to 102
14,Cc1nc2ccccn2c1I,123 to 125
15,COC(=O)Cc1ccc(S(=O)(=O)Cl)s1,59 to 61
16,Cc1c(C)n(Cc2ccccc2)c2ncnc(N)c12,175 to 177
17,N#Cc1ccc(CBr)c(OC(F)F)c1,80 to 82
18,COc1cc(C)c(S(=O)(=O)Cl)cc1OC,73 to 75
19,CC1(c2ccco2)NC(=O)NC1=O (stereo not given),179 to 181
20,O=C(CN1CCNCC1)NCc1ccccc1,49 to 51
21,CN(C)CCC(=O)O,130 to 132
22,CC1CCN(Cc2csc(N)n2)CC1,145 to 147
23,CN(c1ccccc1)c1ccc(C(=O)O)cn1,176 to 178
24,Cc1nc(N2CCNCC2)sc1C,72 to 74
25,CC1(C)NC(=O)N2C1=NC(=N)C2(C)C,236 to 238

row,SMILES,melting point [°C]
1,Cc1ccccc1C(N)CO (stereo not given),99 to 101
2,CN(C)c1cccc(Oc2ccc(C(N)=S)cc2)c1,182 to 184
3,O=C(O)c1n[nH]cc1[N+](=O)[O-],223 to 225
4,Cc1[nH]nc(C(=O)O)c1S(=O)(=O)Cl,150 to 152
5,CC(Cl)C(=O)Nc1ncccn1 (stereo not given),148 to 150
6,N#Cc1ccc2[nH]cc(C=O)c2c1,239 to 241
7,N#CCc1nc2cc(F)ccc2s1,133 to 135
8,Nc1cc(-c2ccoc2)nn1-c1ccccc1,129 to 131
9,N#Cc1ccc(F)c(Cn2ccnc2)c1,91 to 93
10,CN(C)C(=O)CN1CCNCC1,35 to 37
11,CC(Br)C(=O)c1ccc(Cl)cc1 (stereo not given),68 to 70
12,O=[N+]([O-])c1ccccc1-c1cn[nH]c1,105 to 107
13,O=C(O)c1cc(C2CC2)[nH]n1,193 to 195
14,Cc1n[nH]c(-c2ccccc2C)n1,141 to 143
15,CCNC(=O)NC1(C(=O)O)CCCC1,142 to 144
16,COc1ccccc1OCc1ccc(C(=O)O)o1,183 to 185
17,COc1ccc(CCCCC(=O)O)cc1,112 to 114
18,Cc1cc(C)c(C(=O)O)o1,145 to 147
19,NC(=O)NC(CC(=O)O)c1cccc(Oc2ccccc2)c1 (stereo not given),122 to 124
20,Cc1ccc(C)c(-n2ccnc2SCC(=O)O)c1,128 to 130
21,Clc1cc(Cl)cc(OCC2CCNCC2)c1,59 to 61
22,O=[N+]([O-])C=Cc1ccc(F)cc1F,55 to 57
23,CCCCn1c(=O)c(CCC(=O)O)nc2ccccc21,146 to 148
24,O=C1COc2cccc(S(=O)(=O)Cl)c2N1,96 to 98
25,Cc1ccc(C2(C)NC(=O)NC2=O)cc1 (stereo not given),207 to 209

row,SMILES,melting point [°C]
1,N#CCC1C(=O)Nc2ccccc21 (stereo not given),161 to 163
2,CNC(=O)Nc1ccc(N)cc1,147 to 149
3,CS(=O)(=O)c1ccc(-c2nc(CCl)cs2)cc1,151 to 153
4,CN1C(=O)CNc2ccccc21,88 to 90
5,COc1ccc(NCCC(=O)O)cc1,82 to 84
6,O=C1CCc2c(Cl)cccc21,84 to 86
7,Cc1cc(C)n2ncc(C(=O)O)c2n1,176 to 178
8,NC(=O)NC1CC1,114 to 116
9,Nc1nc(-c2ccc3ccccc3c2)n[nH]1,205 to 207
10,Nc1ccc(CC(=O)N2CCOCC2)cc1,164 to 166
11,O=C(Nc1cc(Cl)ccc1Cl)OCC(F)(F)F,110 to 112
12,COC(=O)COc1ccc(N)c2ccccc12,83 to 85
13,OCCCOc1cccc2ccccc12,65 to 67
14,NNC(=O)NCc1ccco1,88 to 90
15,CCCCS(=O)(=O)Nc1ccc(S(=O)(=O)Cl)cc1,123 to 125
16,Cc1ccc(CCC(=O)O)cc1Cl,84 to 86
17,CCCc1onc(C)c1C(=O)O,107 to 109
18,O=C(CC(=O)Nc1ccccc1)Nc1ccccc1,220 to 222
19,CC(Oc1ccc(C=CC(=O)O)cc1F)c1ccccc1 (stereo not given),168 to 170
20,Nc1ccc(Cl)c(S(=O)(=O)N2CCOCC2)c1,157 to 159
